The target in this test is T1, Pdr5p (Saccharomyces cerevisiae, UniProt P33302).
T1 construct: gene PDR5; Pdr5p-enriched plasma membranes from strain AD124567
Kind of test: ATPase activity (Pi release) in Pdr5p-enriched plasma membranes, Pdr5p-null membranes subtracted. The test is classed as biochemical.

Data on four molecules can be found in publication PMC4222501, “Synthetic organotelluride compounds induce the reversal of Pdr5p mediated fluconazole resistance in Saccharomyces cerevisiae” (BMC Microbiology, 2014).

The term IC50 denotes the concentration at which inhibition is half-maximal. Lower therefore signals inhibition by little substance.

T1 sequence (P33302 whole entry): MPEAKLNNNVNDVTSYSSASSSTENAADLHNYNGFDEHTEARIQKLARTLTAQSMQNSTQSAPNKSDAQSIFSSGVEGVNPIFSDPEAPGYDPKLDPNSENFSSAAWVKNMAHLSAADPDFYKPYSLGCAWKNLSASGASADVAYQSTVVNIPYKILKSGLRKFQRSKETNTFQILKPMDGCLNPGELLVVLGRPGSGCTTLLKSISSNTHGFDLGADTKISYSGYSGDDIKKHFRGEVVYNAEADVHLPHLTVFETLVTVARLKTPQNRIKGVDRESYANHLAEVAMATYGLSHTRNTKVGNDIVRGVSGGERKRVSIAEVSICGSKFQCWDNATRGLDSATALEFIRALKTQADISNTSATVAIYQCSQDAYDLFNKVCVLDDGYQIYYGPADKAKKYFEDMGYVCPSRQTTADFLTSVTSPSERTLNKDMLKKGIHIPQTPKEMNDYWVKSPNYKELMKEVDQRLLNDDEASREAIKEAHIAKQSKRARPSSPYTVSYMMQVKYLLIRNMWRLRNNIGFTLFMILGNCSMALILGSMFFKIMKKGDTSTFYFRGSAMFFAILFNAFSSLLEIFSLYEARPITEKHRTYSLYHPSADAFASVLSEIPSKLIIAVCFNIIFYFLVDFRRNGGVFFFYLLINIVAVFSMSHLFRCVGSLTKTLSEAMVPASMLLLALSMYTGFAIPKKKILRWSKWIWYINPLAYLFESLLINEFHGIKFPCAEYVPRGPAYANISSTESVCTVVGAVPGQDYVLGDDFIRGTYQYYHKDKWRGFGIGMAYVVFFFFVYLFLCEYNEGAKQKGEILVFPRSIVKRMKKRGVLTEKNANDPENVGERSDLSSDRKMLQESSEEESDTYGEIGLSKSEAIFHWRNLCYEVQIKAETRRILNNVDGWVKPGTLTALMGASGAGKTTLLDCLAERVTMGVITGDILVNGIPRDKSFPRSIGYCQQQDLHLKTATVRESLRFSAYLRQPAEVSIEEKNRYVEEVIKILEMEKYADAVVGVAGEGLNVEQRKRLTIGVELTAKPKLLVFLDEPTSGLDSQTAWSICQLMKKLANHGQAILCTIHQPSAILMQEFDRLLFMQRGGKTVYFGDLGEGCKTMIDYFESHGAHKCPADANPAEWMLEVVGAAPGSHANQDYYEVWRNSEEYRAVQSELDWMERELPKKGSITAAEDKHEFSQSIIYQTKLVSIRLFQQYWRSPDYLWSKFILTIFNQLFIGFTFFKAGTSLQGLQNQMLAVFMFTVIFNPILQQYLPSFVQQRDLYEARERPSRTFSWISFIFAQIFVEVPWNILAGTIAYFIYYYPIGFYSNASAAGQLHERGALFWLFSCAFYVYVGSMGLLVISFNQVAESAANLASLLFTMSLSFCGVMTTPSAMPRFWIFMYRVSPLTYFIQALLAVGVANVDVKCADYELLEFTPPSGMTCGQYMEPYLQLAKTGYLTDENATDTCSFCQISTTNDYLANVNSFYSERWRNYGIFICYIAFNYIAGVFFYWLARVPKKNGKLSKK

The molecule `CCCC[Te]CCCNC(=O)OC(C)(C)C` [compound 1] showed an IC50 of 1140 ± 210 nM.
`CCCC[Te]CCCNC(=O)c1ccccc1` [compound 2] displayed a 50% inhibitory concentration (IC50) of 1450 ± 490 nM.
`CCCC[Te]CCCCNC(=O)c1ccccc1` [compound 3] yielded a 50% inhibitory concentration (IC50) of 1740 ± 910 nM.
Molecule `CCCC[Te]CCCCCNC(=O)c1ccccc1` [compound 5] had a concentration for half-maximal inhibition (IC50) of 1480 ± 320 nM.
